Molecular target: ATP-dependent translocase ABCB1 (Homo sapiens, UniProt P08183)
Assay: TP_TRANSPORTER: increase in Daunorubicn intracellular accumulation (Daunorubicin: ? uM) in NIH-G185 cells
Format: functional, cell-based

ATP-dependent translocase ABCB1, sequence (P08183 whole entry): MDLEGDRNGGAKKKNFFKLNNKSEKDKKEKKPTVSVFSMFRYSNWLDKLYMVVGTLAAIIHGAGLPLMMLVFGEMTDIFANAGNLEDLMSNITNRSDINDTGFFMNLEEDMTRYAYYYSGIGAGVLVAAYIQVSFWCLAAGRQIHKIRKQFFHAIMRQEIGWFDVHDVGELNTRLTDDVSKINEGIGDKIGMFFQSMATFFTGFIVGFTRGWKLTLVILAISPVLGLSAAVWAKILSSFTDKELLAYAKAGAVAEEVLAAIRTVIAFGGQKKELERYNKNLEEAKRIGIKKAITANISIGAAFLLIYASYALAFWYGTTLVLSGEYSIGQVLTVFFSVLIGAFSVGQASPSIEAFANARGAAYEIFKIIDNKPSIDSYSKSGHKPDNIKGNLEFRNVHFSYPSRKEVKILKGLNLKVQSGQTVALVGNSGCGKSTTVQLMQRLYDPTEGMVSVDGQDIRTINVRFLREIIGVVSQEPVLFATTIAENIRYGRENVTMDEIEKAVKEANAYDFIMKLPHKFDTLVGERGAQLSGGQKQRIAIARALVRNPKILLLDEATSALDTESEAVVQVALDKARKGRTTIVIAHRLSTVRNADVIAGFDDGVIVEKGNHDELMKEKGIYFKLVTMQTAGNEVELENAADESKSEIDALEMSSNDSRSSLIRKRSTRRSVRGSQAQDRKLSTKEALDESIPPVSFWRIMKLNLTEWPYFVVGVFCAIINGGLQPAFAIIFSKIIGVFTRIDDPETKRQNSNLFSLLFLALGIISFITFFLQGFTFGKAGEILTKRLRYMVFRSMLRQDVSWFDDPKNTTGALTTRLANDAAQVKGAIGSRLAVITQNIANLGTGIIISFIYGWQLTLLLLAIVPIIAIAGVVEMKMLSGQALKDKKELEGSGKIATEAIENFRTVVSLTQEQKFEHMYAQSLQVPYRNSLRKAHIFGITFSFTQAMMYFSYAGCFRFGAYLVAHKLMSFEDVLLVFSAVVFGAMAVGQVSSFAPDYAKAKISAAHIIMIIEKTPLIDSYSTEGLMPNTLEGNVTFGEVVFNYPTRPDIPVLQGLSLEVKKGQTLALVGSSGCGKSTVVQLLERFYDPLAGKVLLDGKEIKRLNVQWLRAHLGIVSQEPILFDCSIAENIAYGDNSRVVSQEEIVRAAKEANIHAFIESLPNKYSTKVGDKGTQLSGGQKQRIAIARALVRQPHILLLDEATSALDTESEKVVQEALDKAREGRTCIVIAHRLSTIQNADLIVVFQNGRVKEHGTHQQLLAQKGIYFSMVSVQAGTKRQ

IC50: 8.2 µM
SMILES: CC(C)CCC[C@@H](C)[C@H]1CC[C@H]2[C@@H]3CC=C4C[C@@H](O)CC[C@]4(C)[C@H]3CC[C@]12C [CHOLESTEROL]

From ChEMBL document CHEMBL2073853, “Cholesterol interaction with the daunorubicin binding site of P-glycoprotein” (Biochem Biophys Res Commun, 2000)
